Measurements: PMC6352951, “Computationally driven discovery of phenyl(piperazin-1-yl)methanone derivatives as reversible monoacylglycerol lipase (MAGL) inhibitors” (Journal of Enzyme Inhibition and Medicinal Chemistry, 2019)
Read-outs that look alike come from different tables or passages of the source.

Columns and labels:
Human recombinant MAGL = target: T1, Human recombinant MAGL (Homo sapiens, UniProt Q99685); assay: MAGL inhibition assay (4-NPA substrate, absorbance at 405 nm); assay type: biochemical
T1 construct: purchased Cayman Chemical
T1 sequence (Q99685 1-303): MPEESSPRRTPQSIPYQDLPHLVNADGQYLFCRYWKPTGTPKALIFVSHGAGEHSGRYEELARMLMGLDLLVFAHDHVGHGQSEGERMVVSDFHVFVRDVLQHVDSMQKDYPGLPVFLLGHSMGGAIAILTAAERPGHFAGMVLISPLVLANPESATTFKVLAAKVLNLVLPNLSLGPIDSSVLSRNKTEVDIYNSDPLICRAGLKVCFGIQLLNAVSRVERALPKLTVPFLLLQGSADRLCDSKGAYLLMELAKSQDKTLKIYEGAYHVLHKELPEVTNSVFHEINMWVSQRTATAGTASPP
Experimental: Compounds 1–3 were purchased from ChemBridge corporation, whereas compounds 4 and 5 were synthesized. Human recombinant MAGL, 4-nitrophenyl acetate substrate (4-NPA) and CAY10499 were purchased from Cayman Chemical. The IC50 values were generated in 96-well microtiter plates. The MAGL reaction was conducted at rt at a final volume of 200 µL in […] Tris buffer, pH 7.2, containing […] EDTA. A total of 150 µL of 4-NPA 133.3 µM was added to 10 µL of DMSO containing the appropriate amount of compound. The reaction was initiated by the addition of 40 µL of MAGL (11 ng/well) in such a way that the assay was linear over 30 min. The final concentration of the analyzed compounds ranged from 10 to 0.00001 µM for CAY10499 and from 200 to 0.0128 µM for the other compounds. After the reaction had proceeded for 30 min, absorbance values were then measured by using a VictorX3 PerkinElmer instrument at 405 nm. Two reactions were also run: one reaction containing no compounds and the second one containing neither inhibitor nor enzyme. To remove possible false positive results, a blank analysis was carried out for each compound concentration and the final absorbance results were obtained detracting the absorbance produced by the presence of all the components except MAGL in the same conditions.

[1] = system: breast MDA-MB-231 cancer cells; assay: Cell viability assay; assay type: cell-based, human; details: 96 h, mean ± SD
Experimental: (§1) Human breast MDA-MB-231, colorectal HCT116 and ovarian CAOV3, OVCAR3, and SKOV3 cancer cells (from ATCC) were maintained at 37 °C in a humidified atmosphere containing 5% CO2 according to the supplier. Cells (5 × 10^2) were plated in 96-well culture plates. The day after seeding, vehicle or compounds were added at different concentrations to the medium. Compounds were added to the cell culture at a concentration ranging from 200 to 0.02 μM. Cell viability was measured after 96 h according to the supplier (Promega, cat. n° G7571) with a Tecan M1000 PRO instrument. IC50 values were calculated from logistical dose-response curves. Averages were obtained from triplicates and error bars are standard deviations.

[2] = system: colorectal HCT116 cancer cells; assay: Cell viability assay; assay type: cell-based, human; details: 96 h, mean ± SD
Experimental: as §1

[3] = system: ovarian CAOV3 cancer cells; assay: Cell viability assay; assay type: cell-based, human; details: 96 h, mean ± SD
Experimental: as §1

[4] = system: ovarian OVCAR3 cancer cells; assay: Cell viability assay; assay type: cell-based, human; details: 96 h, mean ± SD
Experimental: as §1

[5] = system: ovarian SKOV3 cancer cells; assay: Cell viability assay; assay type: cell-based, human; details: 96 h, mean ± SD
Experimental: as §1

[6] = system: MDA-MB-231, HCT116, CAOV3, OVCAR3 and SKOV3 cancer cells; assay: Cell viability assay, range over all tested cell lines; assay type: cell-based; details: Homo sapiens, 96 h
Experimental: as §1

[7] = 30 min reaction, no DTT, read-out: MAGL inhibition IC50

SMILES: O=C(c1ccc(-c2ccccc2)cc1)N1CCN(c2cccc(Cl)c2)CC1 [compound 1]
- IC50 (Human recombinant MAGL; [7]): 23.3 µM

SMILES: COc1nn(-c2ccc(NC(=O)OCc3ccccc3)c(C)c2)c(=O)o1 [CAY10499, reference compound]
- IC50 [1]: 82 ± 5 µM
- IC50 [2]: 45 ± 3 µM
- IC50 [3]: 90 ± 6 µM
- IC50 [4]: 52 ± 3 µM
- IC50 [5]: 38 ± 4 µM

SMILES: O=C(c1ccc(-c2cccc3ccc(O)cc23)cc1)N1CCN(c2cccc(Cl)c2)CC1 [compound 4]
- IC50 (Human recombinant MAGL; [7]): 6.1 µM
- IC50 (Human recombinant MAGL; in the presence of 10 μM DTT, read-out: MAGL inhibition IC50 in the presence of DTT): 6.2 µM
- Effect of preincubation time on MAGL inhibitory potency (reversibility) (Human recombinant MAGL; preincubated with the enzyme for 0, 30 and 60 min before adding substrate): did not show any significant increase in inhibitory potency at longer incubation times
- Fold improvement of MAGL inhibition activity with respect to compound 1 (Human recombinant MAGL; ratio of IC50 values vs compound 1): 4 fold
- Fold higher MAGL inhibition activity than compound 5 (Human recombinant MAGL; ratio of IC50 values vs compound 5): 5 fold
- IC50 ([1]; Homo sapiens, MDA-MB-231): 59 ± 5 µM
- IC50 ([2]; Homo sapiens, HCT-116): 48 ± 2 µM
- IC50 ([3]; Homo sapiens, Caov-3): 51 ± 3 µM
- IC50 ([4]; Homo sapiens, OVCAR-3): 72 ± 4 µM
- IC50 ([5]; Homo sapiens, SK-OV-3): 31 ± 2 µM
- IC50 [6]: 31 to 72 µM

SMILES: O=C(c1ccc(-c2ccccc2)cc1)N1CCN(c2cccc3ccc(O)cc23)CC1 [compound 5]
- IC50 (Human recombinant MAGL; [7]): 31.9 µM
